# Entries after “also recorded” stand apart in the source; their conditions may differ.
# T1: adenylosuccinate lyase (cardiac muscle) (Mus musculus, UniProt P54822)
# T1 construct: the hearts and gastrocnemius muscles were excised, weighed, and homogenized to a slurry; from tissue; host or cells: heart of six-week-old C57BL/6J mice; dialyzed 10,000×g supernatant
# T1 sequence (P54822 2-484 limits assumed): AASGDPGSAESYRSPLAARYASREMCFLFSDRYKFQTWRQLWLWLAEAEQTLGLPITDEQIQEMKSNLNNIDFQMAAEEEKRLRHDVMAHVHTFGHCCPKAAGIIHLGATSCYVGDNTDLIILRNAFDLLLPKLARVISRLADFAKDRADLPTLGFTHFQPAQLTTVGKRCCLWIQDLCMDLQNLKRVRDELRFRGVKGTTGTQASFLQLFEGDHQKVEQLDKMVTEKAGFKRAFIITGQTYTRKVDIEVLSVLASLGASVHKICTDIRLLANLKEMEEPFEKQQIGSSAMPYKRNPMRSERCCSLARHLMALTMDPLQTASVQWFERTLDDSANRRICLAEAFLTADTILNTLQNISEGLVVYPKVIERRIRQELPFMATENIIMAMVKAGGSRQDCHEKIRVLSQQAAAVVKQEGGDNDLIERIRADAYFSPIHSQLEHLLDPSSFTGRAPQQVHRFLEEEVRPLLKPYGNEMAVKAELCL
# T2: adenylosuccinate lyase (skeletal muscle) (Mus musculus, UniProt P54822)
# T2 construct: the hearts and gastrocnemius muscles were excised, weighed, and homogenized to a slurry; from tissue; host or cells: gastrocnemius (skeletal) muscle of six-week-old C57BL/6J mice; dialyzed 10,000×g supernatant
# T2 sequence (P54822 2-484 limits assumed): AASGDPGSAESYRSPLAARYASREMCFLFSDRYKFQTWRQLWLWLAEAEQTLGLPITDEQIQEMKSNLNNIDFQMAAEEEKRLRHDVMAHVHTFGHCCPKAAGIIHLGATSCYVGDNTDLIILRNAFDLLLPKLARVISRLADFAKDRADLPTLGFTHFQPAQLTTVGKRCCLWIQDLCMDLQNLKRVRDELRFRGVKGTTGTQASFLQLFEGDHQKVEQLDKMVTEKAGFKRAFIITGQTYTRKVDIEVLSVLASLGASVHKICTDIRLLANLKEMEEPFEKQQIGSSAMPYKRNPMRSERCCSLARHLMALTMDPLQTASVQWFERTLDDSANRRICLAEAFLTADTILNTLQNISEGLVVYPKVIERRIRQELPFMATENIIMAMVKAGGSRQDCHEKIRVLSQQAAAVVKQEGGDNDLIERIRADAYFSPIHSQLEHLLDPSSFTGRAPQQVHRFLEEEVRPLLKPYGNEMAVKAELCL
# Columns and labels:
# cardiovascular system = conditions: prior art statement; cited from earlier work
# [1] = target: T1, adenylosuccinate lyase (cardiac muscle); assay: Assay of adenylosuccinate lyase, cardiac enzyme; type: biochemical, C57BL/6J mice
# Method: (§1) Preparation and Assay of Adenylosuccinate Lyase--Six-week-old C57BL/6J mice were killed, and the hearts and gastrocnemius muscles were excised, weighed, and homogenized to a slurry in 4 volumes of 50 mM Tris-HCl, pH 7.4 at 25° C. containing 1 mM EDTA and 1 mM β-mercaptoethanol in a TenBroeck glass homogenizer. The homogenate was centrifuged at 10,000×g for 15 min and the supernatant was dialyzed against 1,000 volumes of the extraction buffer for 2 h at 4° C. The lyase activity was partially stabilized by the addition of EDTA and β-mercaptoethanol, but some activity was lost even on storage at -70° C.
# (§2) The assays were carried out at pH 7.4 were reaction mixtures that contained 50 mM Tris-HCl buffer, 1 mM EDTA, 1 mM β-mercaptoethanol, 20 μM adenylosuccinate, and the enzyme extract (protein concentration, 0.13-0.20 mg/ml). The decrease in absorbance at 280 nm was measured using a Gilford recording spectrophotometer. All assays were done at 25° C. and were linear with respect to time of incubation and with the amount of protein in extract added to the assay.
# (§3) These are average values for experiments with 4 separate enzyme preparations. The experimental points in the double reciprocal plots were fitted to the best line by the method of least squares with all points being weighted equally.
# [2] = target: T2, adenylosuccinate lyase (skeletal muscle); assay: Assay of adenylosuccinate lyase, skeletal muscle enzyme; type: biochemical, C57BL/6J mice
# Method: as §1, §2, §3
# [3] = substrate: O=C(O)C[C@H](Nc1ncnc2c1ncn2[C@@H]1O[C@H](COP(=O)(O)O)[C@@H](O)[C@H]1O)C(=O)O; assay: Assay of adenylosuccinate lyase, cardiac enzyme; type: biochemical, C57BL/6J mice; conditions: other: cardiac muscle enzyme, pH 7.4, 25° C., 4 enzyme preparations
# Method: as §1, §2, §3
# [4] = substrate: O=C(O)C[C@H](Nc1ncnc2c1ncn2[C@@H]1O[C@H](COP(=O)(O)O)[C@@H](O)[C@H]1O)C(=O)O; assay: Assay of adenylosuccinate lyase, skeletal muscle enzyme; type: biochemical, C57BL/6J mice; conditions: other: skeletal muscle enzyme, pH 7.4, 25° C., 4 enzyme preparations
# Method: as §1, §2, §3
molecule,measurement,setting,value
OC[C@H]1O[C@@H](n2cnc3c(O)ncnc32)[C@H](O)[C@@H]1O [inosine],hemodynamic effects,cardiovascular system,deleterious hemodynamic effects
O=c1[nH]cnc2nc[nH]c12 [hypoxanthine],hemodynamic effects,cardiovascular system,deleterious hemodynamic effects
Nc1ncnc2c1ncn2[C@@H]1O[C@H](CO)[C@@H](O)[C@H]1O [adenosine],hemodynamic effects,cardiovascular system,profound changes in the hemodynamic status; also recorded: deleterious hemodynamic effects
"NC(=O)c1ncn([C@@H]2O[C@H](COP(=O)(O)O)[C@@H](O)[C@H]2O)c1N [AICAR, 5-Amino-4-imidazolecarboxamide Ribotide]",Ki,[1],4.5 ± 1.7 µM
same,maximal AICAR concentration exceeding Ki of adenylosuccinate lyase,[1]; cardiac muscle,180 fold
same,Ki,[2],7.6 ± 3.2 µM
same,maximal AICAR concentration exceeding Ki of adenylosuccinate lyase,[2]; skeletal muscle,18 fold
"adenylosuccinate lyase (cardiac muscle) (Mus musculus) (protein, the hearts and gastrocnemius muscles were excised, weighed, and homogenized to a slurry; from tissue; host or cells: heart of six-week-old C57BL/6J mice; dialyzed 10,000×g supernatant) AASGDPGSAESYRSPLAARYASREMCFLFSDRYKFQTWRQLWLWLAEAEQTLGLPITDEQIQEMKSNLNNIDFQMAAEEEKRLRHDVMAHVHTFGHCCPKAAGIIHLGATSCYVGDNTDLIILRNAFDLLLPKLARVISRLADFAKDRADLPTLGFTHFQPAQLTTVGKRCCLWIQDLCMDLQNLKRVRDELRFRGVKGTTGTQASFLQLFEGDHQKVEQLDKMVTEKAGFKRAFIITGQTYTRKVDIEVLSVLASLGASVHKICTDIRLLANLKEMEEPFEKQQIGSSAMPYKRNPMRSERCCSLARHLMALTMDPLQTASVQWFERTLDDSANRRICLAEAFLTADTILNTLQNISEGLVVYPKVIERRIRQELPFMATENIIMAMVKAGGSRQDCHEKIRVLSQQAAAVVKQEGGDNDLIERIRADAYFSPIHSQLEHLLDPSSFTGRAPQQVHRFLEEEVRPLLKPYGNEMAVKAELCL",Km,[3],2.2 ± 0.3 µM
"adenylosuccinate lyase (skeletal muscle) (Mus musculus) (protein, the hearts and gastrocnemius muscles were excised, weighed, and homogenized to a slurry; from tissue; host or cells: gastrocnemius (skeletal) muscle of six-week-old C57BL/6J mice; dialyzed 10,000×g supernatant) AASGDPGSAESYRSPLAARYASREMCFLFSDRYKFQTWRQLWLWLAEAEQTLGLPITDEQIQEMKSNLNNIDFQMAAEEEKRLRHDVMAHVHTFGHCCPKAAGIIHLGATSCYVGDNTDLIILRNAFDLLLPKLARVISRLADFAKDRADLPTLGFTHFQPAQLTTVGKRCCLWIQDLCMDLQNLKRVRDELRFRGVKGTTGTQASFLQLFEGDHQKVEQLDKMVTEKAGFKRAFIITGQTYTRKVDIEVLSVLASLGASVHKICTDIRLLANLKEMEEPFEKQQIGSSAMPYKRNPMRSERCCSLARHLMALTMDPLQTASVQWFERTLDDSANRRICLAEAFLTADTILNTLQNISEGLVVYPKVIERRIRQELPFMATENIIMAMVKAGGSRQDCHEKIRVLSQQAAAVVKQEGGDNDLIERIRADAYFSPIHSQLEHLLDPSSFTGRAPQQVHRFLEEEVRPLLKPYGNEMAVKAELCL",Km,[4],4.5 ± 1.5 µM

# From patent US4575498A, “Method for restoring depleted purine nucleotide pools” (priority 1983, dated 1986)
